Assay results reported in ChEMBL document CHEMBL1201862, “PubChem BioAssay data set” (2004).
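96-well plates; 48 h exposure; 5 concentrations. Endpoints by linear interpolation between flanking doses. Not reached: highest tested concentration assigned. GI50 is the concentration that inhibits growth by half.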 Activity calls are given as the source filed them. Cut-off read from the data, not from the text of the source: active = GI50 up to about 1.1 µM and inactive = higher.

Legend:
Test in all cases: NCI anticancer screen, dose series, 48 h
DU-145 = test system: DU-145
SF-539 = test system: SF-539
HL-60 = test system: HL-60
SNB-19 = test system: SNB-19
LXFL 529 = test system: LXFL 529
SK-MEL-28 = test system: SK-MEL-28
MDA-MB-435 = test system: MDA-MB-435
Hs-578T = test system: Hs-578T
SF-268 = test system: SF-268
CCRF-CEM = test system: CCRF-CEM
T47D = test system: T47D
OVCAR-4 = test system: OVCAR-4
A549 = test system: A549
DLD-1 = test system: DLD-1
COLO 205 = test system: COLO 205
LOX IMVI = test system: LOX IMVI
NCI-H522 = test system: NCI-H522
IGROV-1 = test system: IGROV-1
HOP-18 = test system: HOP-18
UACC-62 = test system: UACC-62
NCI-H226 = test system: NCI-H226
DMS-114 = test system: DMS-114
SK-MEL-2 = test system: SK-MEL-2
SF-295 = test system: SF-295
RXF 393 = test system: RXF 393
KM12 = test system: KM12
MDA-N = test system: MDA-N
DMS-273 = test system: DMS-273
786-0 = test system: 786-0
M14 = test system: M14
HCC 2998 = test system: HCC 2998
ACHN = test system: ACHN
NCI/ADR-RES = test system: NCI/ADR-RES
HCT-116 = test system: HCT-116
RXF 631 = test system: RXF 631
SN12C = test system: SN12C
UACC-257 = test system: UACC-257
A498 = test system: A498
SR = test system: SR
XF498 = test system: XF498
Malme-3M = test system: Malme-3M
OVCAR-5 = test system: OVCAR-5
HOP-92 = test system: HOP-92
UO-31 = test system: UO-31
MCF7 = test system: MCF7
KM-20L2 = test system: KM-20L2
RPMI-8226 = test system: RPMI-8226
CAKI-1 = test system: CAKI-1
TK-10 = test system: TK-10
PC-3 = test system: PC-3
M19-MEL = test system: M19-MEL
HOP-62 = test system: HOP-62
MOLT-4 = test system: MOLT-4
OVCAR-8 = test system: OVCAR-8
SNB-75 = test system: SNB-75
HCT-15 = test system: HCT-15
EKVX = test system: EKVX
NCI-H460 = test system: NCI-H460
NCI-H23 = test system: NCI-H23
K562 = test system: K562
MDA-MB-231 = test system: MDA-MB-231
U-251 = test system: U-251
SW-620 = test system: SW-620
SK-OV-3 = test system: SK-OV-3
OVCAR-3 = test system: OVCAR-3
HT-29 = test system: HT-29
SK-MEL-5 = test system: SK-MEL-5
SNB-78 = test system: SNB-78

CCc1cccc(CC)c1NC(=S)NC(=O)c1ccc(Br)cc1
GI50 (DU-145): 75.7 µM (inactive)
GI50 (SF-539): 33.1 µM (inactive)
GI50 (HL-60): 17.5 µM (inactive)
GI50 (SNB-19): 40.9 µM (inactive)
GI50 (LXFL 529): 43.1 µM (inactive)
GI50 (SK-MEL-28): 55.1 µM (inactive)
GI50 (MDA-MB-435): 23 µM (inactive)
GI50 (Hs-578T): 3.76 µM (inactive)
GI50 (SF-268): 45 µM (inactive)
GI50 (CCRF-CEM): 17.7 µM (inactive)
GI50 (T47D): 21.9 µM (inactive)
GI50 (OVCAR-4): 7.48 µM (inactive)
GI50 (A549): 32.8 µM (inactive)
GI50 (DLD-1): 34.9 µM (inactive)
GI50 (COLO 205): 18.1 µM (inactive)
GI50 (LOX IMVI): > 39.4 µM (inactive)
GI50 (NCI-H522): 17.6 µM (inactive)
GI50 (IGROV-1): 27.9 µM (inactive)
GI50 (HOP-18): 49.9 µM (inactive)
GI50 (UACC-62): 19.7 µM (inactive)
GI50 (NCI-H226): 21.5 µM (inactive)
GI50 (DMS-114): 28.2 µM (inactive)
GI50 (SK-MEL-2): 18.6 µM (inactive)
GI50 (SF-295): > 53 µM (inactive)
GI50 (RXF 393): 19.1 µM (inactive)
GI50 (KM12): 33.8 µM (inactive)
GI50 (MDA-N): 30.4 µM (inactive)
GI50 (DMS-273): 49 µM (inactive)
GI50 (786-0): 30.1 µM (inactive)
GI50 (M14): 26.8 µM (inactive)
GI50 (HCC 2998): 33.2 µM (inactive)
GI50 (ACHN): 32.4 µM (inactive)
GI50 (NCI/ADR-RES): 29.7 µM (inactive)
GI50 (HCT-116): 28.8 µM (inactive)
GI50 (RXF 631): > 100 µM (inactive)
GI50 (SN12C): 32.6 µM (inactive)
GI50 (UACC-257): 32.2 µM (inactive)
GI50 (A498): 33.6 µM (inactive)
GI50 (SR): 20.3 µM (inactive)
GI50 (XF498): 26.3 µM (inactive)
GI50 (Malme-3M): 18.4 µM (inactive)
GI50 (OVCAR-5): > 50.4 µM (inactive)
GI50 (HOP-92): 18.5 µM (inactive)
GI50 (UO-31): 26.3 µM (inactive)
GI50 (MCF7): 20.6 µM (inactive)
GI50 (KM-20L2): 47.5 µM (inactive)
GI50 (RPMI-8226): 33.1 µM (inactive)
GI50 (CAKI-1): 29.6 µM (inactive)
GI50 (TK-10): 25.3 µM (inactive)
GI50 (PC-3): 24.3 µM (inactive)
GI50 (M19-MEL): 35.2 µM (inactive)
GI50 (HOP-62): 32.4 µM (inactive)
GI50 (MOLT-4): 18.8 µM (inactive)
GI50 (OVCAR-8): 54.5 µM (inactive)
GI50 (SNB-75): 26.4 µM (inactive)
GI50 (HCT-15): 33.7 µM
GI50 (EKVX): 23.6 µM (inactive)
GI50 (NCI-H460): 17.7 µM (inactive)
GI50 (NCI-H23): 29.6 µM (inactive)
GI50 (K562): 40.7 µM (inactive)
GI50 (MDA-MB-231): 29 µM (inactive)
GI50 (U-251): 40.1 µM (inactive)
GI50 (SW-620): 36.5 µM (inactive)
GI50 (SK-OV-3): 64.9 µM (inactive)
GI50 (OVCAR-3): 36.3 µM (inactive)
GI50 (HT-29): 36.9 µM (inactive)
GI50 (SK-MEL-5): 26.4 µM (inactive)
GI50 (SNB-78): 64.7 µM (inactive)
